# Assay results from ChEMBL document CHEMBL4266050, “Metabolomics-Driven Discovery of Meroterpenoids from a Mussel-Derived Penicillium ubiquetum” (J Nat Prod, 2018).
# Calls of active or inactive are those of the source. The calls are words filed in the database; no cut-off is given here.
# Tests used:
# [1] = system: KB; experiment: Cytotoxicity against human KB cells at 50 uM by MTT assay; type: functional, cell-based
# [2] = system: MCF7; experiment: Cytotoxicity against human MCF7 cells at 50 uM by MTT assay; type: functional, cell-based
# [3] = Stability of the compound; type: physicochemical
# [4] = system: KB; experiment: Cytotoxicity against human KB cells by MTT assay; type: functional, cell-based
# [5] = system: MCF7; experiment: Cytotoxicity against human MCF7 cells by MTT assay; type: functional, cell-based
SMILES,Activity [1],Activity [2],Stability [3],IC50 [4],IC50 [5]
COC(=O)O[C@@H]1C=C2C(=CC(=O)OC2(C)C)[C@H](C)[C@@H]2C[C@@]3(C)C(=O)O[C@H]4O[C@@H](C)C(=O)[C@H]([C@H]43)[C@@]12C,inactive,inactive,–,–,–
COC(=O)[C@@]12[C@@]3(C)[C@H]4C=C5C(=CC(=O)OC5(C)C)[C@H](C)[C@@H]3C[C@@]3(C)C(=O)O[C@@H](O[C@@H](C)[C@@]1(O)O4)[C@@]23O,inactive,inactive,–,–,–
COC(=O)[C@]12C(=O)[C@H](C)O[C@@H]3OC(=O)[C@](C)(C[C@H]4C(C)=C5CC(=O)OC(C)(C)C5=CC[C@@]41C)[C@@H]32,inactive,inactive,–,–,–
COC(=O)O[C@@H]1C=C2C(=CC(=O)OC2(C)C)[C@H](C)[C@@H]2C[C@@]3(C)C(=O)O[C@H]4O[C@@H](C)C(=O)[C@@H]([C@@]12C)[C@]43O,inactive,inactive,–,–,–
COC(=O)[C@]12[C@@H]3[C@H]4OC(=O)[C@]3(C)CC3=C(C)C5=C(C[C@@H](O[C@]1(O)[C@H](C)O4)[C@@]32C)C(C)(C)OC(=O)C5,inactive,inactive,–,–,–
COC(=O)[C@@]12[C@@H]3[C@H]4OC(=O)[C@]3(C)C[C@@H]3[C@]1(C)[C@@H](C=C1C(=CC(=O)OC1(C)C)[C@@]3(C)O)O[C@]2(O)[C@H](C)O4,inactive,inactive,–,–,–
COC(=O)[C@@]1(C)O[C@H]2OC(=O)[C@@H]3[C@H]2[C@@](C)(C[C@H]2C(C)=C4CC(=O)OC(C)(C)C4=CC[C@]32C)C1=O,inactive,inactive,–,–,–
COC(=O)[C@]12C(=O)[C@H](C)O[C@@H]3OC(=O)[C@](C)(C[C@H]4[C@@H](C)C5=CC(=O)OC(C)(C)C5=C[C@@H](O)[C@@]41C)[C@@H]32,–,–,Unstable,–,–
COC(=O)[C@]12[C@@H]3[C@H]4OC(=O)[C@]3(C)C[C@H]3[C@@H](C)C5=CC(=O)OC(C)(C)C5=C[C@@H](O[C@]1(O)[C@H](C)O4)[C@@]32C,inactive,inactive,–,–,–
CC(=O)O[C@@]12CO[C@@H]1C[C@H](O)[C@@]1(C)C(=O)[C@H](O)C3=C(C)[C@@H](OC(=O)[C@H](O)[C@@H](NC(=O)OC(C)(C)C)c4ccccc4)C[C@@](O)([C@@H](OC(=O)c4ccccc4)[C@H]21)C3(C)C [DOCETAXEL ANHYDROUS],–,–,–,38 nM,10.3 nM
